In ChEMBL document CHEMBL1201862, “PubChem BioAssay data set” (2004):
The source made the active and inactive calls.

Key:
[1] = Trypanosoma cruzi growth suppression in host cells – NIH3T3 host cells, beta-gal luminescence, confirmation (AID 2044); assay type: functional, cell-based;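 further: intracellular parasites grown in NIH/3T3 mouse fibroblasts as host cells; luminescent beta-galactosidase reporter signal from transgenic T. cruzi replicating inside host cells; inhibitors lower the luminescence signal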
[2] = NIH3T3 cell viability loss – ATP luminescence, mouse fibroblasts, counter-screen, dose response (AID 2010); assay type: functional, cell-based;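 further: cells exposed to compound for about 90 hours before reading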
[3] = Luminescence Cell-Based Dose Retest to Confirm Inhibitors of Cancer Stem Cells. [Related pubchem assays (depositor defined):AID2717, AID2721]; assay type: functional; settings: Homo sapiens
INS1 = experiment: INS-1E survival protection against cytokine death – cell-based, luminescence, retest, dose response (AID 449756); assay type: functional; settings: Rattus norvegicus;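 further: cell death triggered by IL-1 beta plus TNF-alpha plus IFN-gamma mixture; protective hits raise ATP signal compared with cytokine alone wells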
[4] = target: T1, Ubiquitin-conjugating enzyme E2 N (Homo sapiens, UniProt P61088); assay type: functional;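 further: Dose-response confirmation in a TR-FRET assay detecting UBC13-driven polyubiquitin chain formation, inhibition measured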
T1 sequence (P61088 whole entry): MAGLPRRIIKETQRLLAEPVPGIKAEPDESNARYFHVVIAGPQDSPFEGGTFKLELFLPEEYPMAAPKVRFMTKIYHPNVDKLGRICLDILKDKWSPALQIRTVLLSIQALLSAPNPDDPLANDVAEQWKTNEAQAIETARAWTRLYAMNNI

Aminopeptidase N = target: T2, Aminopeptidase N (Plasmodium falciparum FcB1/Columbia, UniProt O96935); experiment: malaria alanyl aminopeptidase activity blockers – biochemical, fluorogenic H-Leu-NHMec substrate, 1536-well (AID 1445); design: species or system Plasmodium falciparum 3D7, 3D7
T2 sequence (O96935 whole entry): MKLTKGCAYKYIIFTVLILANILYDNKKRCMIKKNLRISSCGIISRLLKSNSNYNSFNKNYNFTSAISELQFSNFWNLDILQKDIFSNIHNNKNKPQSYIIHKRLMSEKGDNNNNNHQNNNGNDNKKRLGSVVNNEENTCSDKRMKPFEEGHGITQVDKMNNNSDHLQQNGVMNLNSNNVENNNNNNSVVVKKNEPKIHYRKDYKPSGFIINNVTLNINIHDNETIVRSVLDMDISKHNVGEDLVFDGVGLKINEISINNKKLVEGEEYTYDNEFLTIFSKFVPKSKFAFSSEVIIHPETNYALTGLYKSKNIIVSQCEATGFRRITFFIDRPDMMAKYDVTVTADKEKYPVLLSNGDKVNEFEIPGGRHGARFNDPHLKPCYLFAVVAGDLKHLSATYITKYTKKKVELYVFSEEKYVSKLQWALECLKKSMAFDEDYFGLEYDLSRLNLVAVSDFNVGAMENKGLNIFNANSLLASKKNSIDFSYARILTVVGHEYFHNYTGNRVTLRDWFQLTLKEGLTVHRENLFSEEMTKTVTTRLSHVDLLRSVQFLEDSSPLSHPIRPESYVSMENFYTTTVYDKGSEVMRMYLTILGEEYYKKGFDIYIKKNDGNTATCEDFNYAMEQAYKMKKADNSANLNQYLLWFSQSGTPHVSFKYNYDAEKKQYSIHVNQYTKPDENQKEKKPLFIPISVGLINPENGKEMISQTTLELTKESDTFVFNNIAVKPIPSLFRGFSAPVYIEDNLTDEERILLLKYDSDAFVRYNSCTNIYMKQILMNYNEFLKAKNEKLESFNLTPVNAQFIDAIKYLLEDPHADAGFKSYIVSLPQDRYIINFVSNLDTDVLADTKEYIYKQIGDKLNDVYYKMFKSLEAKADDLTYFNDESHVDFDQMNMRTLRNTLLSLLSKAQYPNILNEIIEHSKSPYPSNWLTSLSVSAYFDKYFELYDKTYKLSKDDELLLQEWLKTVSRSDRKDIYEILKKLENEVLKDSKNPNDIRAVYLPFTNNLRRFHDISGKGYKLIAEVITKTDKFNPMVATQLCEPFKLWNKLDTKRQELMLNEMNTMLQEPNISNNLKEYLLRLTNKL

[5] = target: T3, RNA-binding protein pos-1 (Caenorhabditis elegans, UniProt G5EF15); experiment: disruptors of C. elegans POS-1 RNA interaction – biochemical, fluorescence polarization, dose response (AID 1964);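 further: purified POS-1 fused to maltose binding protein made in E. coli; potency of compounds blocking POS-1 binding to fluorescent RNA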
T3 sequence (G5EF15 whole entry): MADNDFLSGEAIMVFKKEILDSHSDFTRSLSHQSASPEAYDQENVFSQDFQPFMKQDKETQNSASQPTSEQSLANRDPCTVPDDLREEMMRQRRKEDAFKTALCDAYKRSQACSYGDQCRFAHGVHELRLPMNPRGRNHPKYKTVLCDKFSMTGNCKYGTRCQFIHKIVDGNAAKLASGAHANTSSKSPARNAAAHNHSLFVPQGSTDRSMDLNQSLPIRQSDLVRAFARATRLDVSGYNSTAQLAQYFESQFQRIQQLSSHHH

[6] = target: T4, Zinc finger protein mex-5 (Caenorhabditis elegans, UniProt Q9XUB2); experiment: potency of MEX-5 RNA-binding blockers – biochemical, C. elegans, fluorescence polarization, dose response (AID 1960)
T4 sequence (Q9XUB2 whole entry): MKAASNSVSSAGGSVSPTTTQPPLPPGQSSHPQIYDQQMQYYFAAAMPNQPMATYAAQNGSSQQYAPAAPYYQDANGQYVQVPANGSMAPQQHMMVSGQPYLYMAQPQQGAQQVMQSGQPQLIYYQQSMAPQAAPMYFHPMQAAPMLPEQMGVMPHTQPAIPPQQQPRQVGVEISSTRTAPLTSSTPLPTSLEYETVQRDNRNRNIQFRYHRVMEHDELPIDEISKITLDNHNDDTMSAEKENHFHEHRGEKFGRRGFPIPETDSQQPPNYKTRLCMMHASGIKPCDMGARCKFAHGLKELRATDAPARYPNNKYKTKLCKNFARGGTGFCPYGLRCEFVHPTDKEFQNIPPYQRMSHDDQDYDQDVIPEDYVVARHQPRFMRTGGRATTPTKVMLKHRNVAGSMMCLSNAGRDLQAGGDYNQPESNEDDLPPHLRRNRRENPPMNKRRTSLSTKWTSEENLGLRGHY

[7] = target: T5, Replicative DNA helicase DnaB (Mycobacterium tuberculosis, UniProt P9WMR3); experiment: DnaB intein splicing inhibitors, dose response, biochemical, cell-free fluorescence (AID 449749); assay type: functional
T5 sequence (P9WMR3 whole entry): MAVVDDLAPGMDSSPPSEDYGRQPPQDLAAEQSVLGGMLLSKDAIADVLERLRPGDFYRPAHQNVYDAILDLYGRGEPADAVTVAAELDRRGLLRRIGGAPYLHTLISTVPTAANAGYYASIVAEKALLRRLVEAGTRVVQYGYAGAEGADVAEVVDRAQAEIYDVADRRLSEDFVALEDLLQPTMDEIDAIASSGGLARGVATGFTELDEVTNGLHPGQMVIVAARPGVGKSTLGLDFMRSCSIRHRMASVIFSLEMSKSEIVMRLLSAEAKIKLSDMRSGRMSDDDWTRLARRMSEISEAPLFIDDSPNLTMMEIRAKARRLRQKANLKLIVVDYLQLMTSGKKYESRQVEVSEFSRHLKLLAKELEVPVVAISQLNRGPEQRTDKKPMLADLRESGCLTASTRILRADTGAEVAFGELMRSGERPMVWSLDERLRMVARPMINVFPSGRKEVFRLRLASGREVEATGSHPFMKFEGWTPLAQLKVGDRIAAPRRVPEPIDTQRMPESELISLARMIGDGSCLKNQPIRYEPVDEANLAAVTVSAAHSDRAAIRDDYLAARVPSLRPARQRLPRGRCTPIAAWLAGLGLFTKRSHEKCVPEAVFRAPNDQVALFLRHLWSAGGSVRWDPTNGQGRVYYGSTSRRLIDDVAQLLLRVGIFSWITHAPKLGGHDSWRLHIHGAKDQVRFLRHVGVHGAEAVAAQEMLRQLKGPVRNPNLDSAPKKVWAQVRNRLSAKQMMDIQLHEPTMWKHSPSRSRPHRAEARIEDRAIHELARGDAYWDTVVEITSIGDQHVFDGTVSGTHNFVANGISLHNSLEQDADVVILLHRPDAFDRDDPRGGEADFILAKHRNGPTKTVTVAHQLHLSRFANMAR

Protein RecA = target: T6, Protein RecA (Mycobacterium tuberculosis, UniProt P9WHJ3); experiment: Fluorescence Cell-Free Homogeneous Dose Retest to Identify Inhibitors of RecA-Intein Splicing Activity. [Related pubchem assays (depositor defined):AID2097, AID2223, AID489010, AID492950]; assay type: functional
T6 sequence (P9WHJ3 whole entry): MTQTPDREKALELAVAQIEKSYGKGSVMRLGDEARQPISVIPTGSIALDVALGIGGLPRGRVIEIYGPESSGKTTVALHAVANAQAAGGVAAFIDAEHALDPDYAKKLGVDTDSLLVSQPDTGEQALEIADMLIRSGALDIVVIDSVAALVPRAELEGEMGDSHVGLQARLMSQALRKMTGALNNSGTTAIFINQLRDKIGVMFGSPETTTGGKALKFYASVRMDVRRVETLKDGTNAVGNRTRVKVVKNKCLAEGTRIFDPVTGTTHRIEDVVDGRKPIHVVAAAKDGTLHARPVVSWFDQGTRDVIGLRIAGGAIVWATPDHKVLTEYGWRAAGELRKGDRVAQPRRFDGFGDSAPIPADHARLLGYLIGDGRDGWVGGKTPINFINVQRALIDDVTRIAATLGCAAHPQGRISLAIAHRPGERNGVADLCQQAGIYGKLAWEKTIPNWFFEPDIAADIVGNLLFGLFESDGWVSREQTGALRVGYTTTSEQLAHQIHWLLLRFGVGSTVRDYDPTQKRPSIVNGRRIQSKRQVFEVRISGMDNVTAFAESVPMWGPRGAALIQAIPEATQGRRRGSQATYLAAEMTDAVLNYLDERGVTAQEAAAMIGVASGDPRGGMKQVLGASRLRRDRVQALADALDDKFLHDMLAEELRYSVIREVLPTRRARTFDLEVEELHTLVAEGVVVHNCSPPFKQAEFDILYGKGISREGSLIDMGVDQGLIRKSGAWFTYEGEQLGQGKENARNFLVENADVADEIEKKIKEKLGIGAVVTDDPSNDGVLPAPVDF

SN12K1 = experiment: cells; assay type: functional; settings: Homo sapiens
P388 = experiment: cells; assay type: functional; settings: Mus musculus
P388/ADR = experiment: cells; assay type: functional; settings: Mus musculus

| SMILES | GI50 (SN12K1) | GI50 (P388) | GI50 (P388/ADR) | also measured |
| --- | --- | --- | --- | --- |
| O=C(NC(NC(=S)Nc1ccccc1)C(Cl)(Cl)Cl)c1cccc(Cl)c1 (centres undefined) |  |  |  | EC50 [1]: 2.31 µM (active); EC50 [2]: > 60 µM (not active); AC50 [3]: 4.73 µM (active); AC50 (INS1): 8.54 µM (active) |
| CCn1c(=O)cc(C(F)(F)F)[nH]c1=S |  |  |  | IC50 [4]: > 20 µM (inactive) |
| Cc1[nH][nH]c(=O)c1C(c1cc([N+](=O)[O-])ccc1O)c1c(C)[nH][nH]c1=O |  |  |  | IC50 (Aminopeptidase N): 30.1 µM (active); EC50 [5]: 64.5 µM (active); EC50 [6]: 16.7 µM (active); AC50 [7]: 0.399 µM (active); EC50 (Protein RecA): 0.262 µM (active) |
| Cc1ccc(C(C(=O)NCC2CCCO2)N(C(=O)c2snc(C(N)=O)c2N)c2ccccc2F)o1 (centres undefined) |  |  |  | IC50 [4]: > 20 µM (inactive) |
| O=c1c2cc(Br)ccc2[nH]c(=S)n1-c1ccccc1 |  |  |  | IC50 [4]: > 20 µM (inactive) |
| CCN1CCN(S(=O)(=O)c2ccc(Cl)c(C(=O)N(C)Cc3cccs3)c2)CC1 |  |  |  | IC50 [4]: > 20 µM (inactive) |
| CCCCCOc1ccc(/C=N\c2ccc(CCc3ccc(/N=C/c4ccc(OCCCCC)cc4)cc3)cc2)cc1 | > 100 µM (inactive) | > 100 µM (inactive) |  |  |
| O=C(CCN1CCCCC1)C(=Cc1ccccc1)C(=O)CCN1CCCCC1 | 52.4 µM (inactive) | 15.6 µM (inactive) | 25.9 µM (inactive) |  |
| C=C(C)C(=O)/N=C(\N)NC#N | 26.4 µM (inactive) | 3.72 µM (inactive) | 10.4 µM (inactive) |  |
| CN(C)CCNC(=O)c1cccc2c(=O)c3ccccc3oc12 | 19.7 µM (inactive) | 15 µM (inactive) | 28 µM (inactive) |  |
| O=C(O)/C=C/C(=O)N1C/C(=C\c2ccccc2)C(=O)/C(=C/c2ccccc2)C1 | 1.82 µM (inactive) | 11.9 µM (inactive) | 13.8 µM (inactive) |  |
| COc1cc(C2c3cc4c(cc3[C@@H](Nc3ccccc3)C3COC(=O)[C@H]23)OCO4)cc(OC)c1O (some centres undefined) | < 0.0164 µM (active) | < 0.01 µM (active) | 0.0344 µM (active) |  |
| CSC[S+]([O-])C[C@H](CO)NC(=O)/C=C/c1c(C)[nH]c(=O)[nH]c1=O (some centres undefined) | 1.31 µM (inactive) | 0.416 µM (active) | 1 µM (active) |  |
| COC(=O)[C@@]12OC[C@]34[C@H]([C@@H](O)[C@@H]1O)[C@@]1(C)CC(=O)C(O)=C(C)[C@@H]1C[C@H]3OC(=O)[C@H](OC(=O)/C=C(\C)C(C)C)[C@@H]24 [BRUCEANTIN] | 0.02 µM (active) | 0.021 µM (active) | 0.0244 µM (active) |  |
| Cc1cc(O)c2c(=O)c3c(O)cc(O)c4c5c(O)cc(O)c6c(=O)c7c(O)cc(C)c8c1c2c(c34)c(c78)c65 [HYPERICIN] | 92.7 µM (inactive) | 11.9 µM (inactive) | 49.2 µM (inactive) |  |
